In assay [1] the test system is ATH-8 cell line. The assay can be described thus: Inhibitory activity against HIV-1 in ATH8 cells. The assay is classed as functional, cell-based. The note with it: Homo sapiens.
The test system of another assay is L1210. The assay can be described thus: Growth inhibition of murine leukemia L1210 cells. The note with it: Mus musculus. In kind it is functional, cell-based.
The subject of assay [2] is ATH-8 cell line. As to the kind of experiment: Inhibitory activity against HIV-1 in ATH8 cells; IA means Inactive. The assay is classed as functional, cell-based, Homo sapiens.

Experimental findings from ChEMBL document CHEMBL1128724, “Unsaturated acyclic analogues of 2'-deoxyadenosine and thymidine containing fluorine: synthesis and biological activity” (J Med Chem, 1995) are described below.

`Nc1ncnc2c1ncn2C/C=C(/F)CO` came in with an IC50 with ATH-8 cell line [1] of 100 µM.
In the assay with L1210, `Cc1cn(C/C=C(/F)CO)c(=O)[nH]c1=O` came in with an IC50 of 60 µM.
Regarding `Nc1ncnc2c1ncn2C/C=C(\F)CO`, the concentration for half-maximal inhibition (IC50) entry in the assay with ATH-8 cell line [2] was “Not Active”.
As for `Nc1ncnc2c1ncn2C(F)C#CCO` (centres undefined), it took 89 µM to reach half-maximal inhibition in the assay with L1210 (IC50).

In general, IC50 refers to the concentration at which inhibition is half-maximal. Higher therefore signals weaker potency.
